Key:
Akt phosphorylation = experiment: Akt Phosphorylation Assay (western blot), Panc-1; type: cell-based, human; conditions: at 10 μM, * = activation
In short: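 Phospho-Akt (Ser473) was measured by western blot in lysates of KRas G12D Panc-1 cells exposed to test compound for 6 h at 37 °C, either at 10 μM final with 0.3% DMSO or as serial dilutions for IC50. One format used overnight 0.5% FBS starvation followed by a 15 min pulse of 1.5 ng/ml EGF. The other used cells in 10% FBS with no stimulation.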

IL6 = experiment: IL-6 Quantification Assay (ELISA), LPS-stimulated RAW 264.7; type: cell-based; parameters: inhibition: dose or concentration left out as unconfirmed; conditions: Mus musculus, RAW264.7; read-out: IL-6: % inh.
Erk1/2 phosphorylation = experiment: Erk1/2 Phosphorylation Assay (western blot), Panc-1; type: cell-based, human; conditions: at 10 μM, * = activation
In short: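 Phospho-Erk1/2 (Thr202/Tyr204) was detected by western blot in lysates of Panc-1 cells (KRas G12D). These had 6 h, 37° C exposure to 10 μM compound or a dilution series for IC50, in 0.3% DMSO. Cells were either starved overnight in 0.5% FBS with a 15-min 1.5 ng/ml EGF pulse, or kept unstimulated in 10% FBS.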

| SMILES | % inh of Akt phosphorylation in Panc-1 (Akt phosphorylation) | inhibition (IL6) [%] | % inh of Erk1/2 phosphorylation in Panc-1 (Erk1/2 phosphorylation) |
| --- | --- | --- | --- |
| COCC1CCN(c2nc(-c3ccccn3)nn3cc(-c4ccn(C(C)C)n4)c(C)c23)C1 (racemic) [Compound 10, rac 6-(1-Isopropyl-1H-pyrazol-3-yl)-4-(3-(methoxymethyl)pyrrolidin-1-yl)-5-methyl-2-(pyridin-2-yl)pyrrolo[2,1-f][1,2,4]triazine] | 0 (0% inhibition) | 25 to 49 | 0 (0% inhibition) |
| COC[C@@H]1CC[C@@H]1CNc1nc(-c2ccccn2)nn2cc(-c3ccn(C(C)C)n3)c(C)c12 (racemic) [Compound 11, rac 6-(1-Isopropyl-1H-pyrazol-3-yl)-N-(((1S,2R)-2-(methoxymethyl)cyclobutyl)methyl)-5-methyl-2-(pyridin-2-yl)pyrrolo[2,1-f][1,2,4]triazin-4-amine] | 0 (0% inhibition) | 0 | 0 (0% inhibition) |
| COC1CCCN(c2nc(-c3ccccn3)nn3cc(-c4ccn(C(C)C)n4)c(C)c23)C1 (racemic) [Compound 12, rac 6-(1-Isopropyl-1H-pyrazol-3-yl)-4-(3-methoxypiperidin-1-yl)-5-methyl-2-(pyridin-2-yl)pyrrolo[2,1-f][1,2,4]triazine] | 0 (0% inhibition) | 25 to 49 | 0 (0% inhibition) |
| CO[C@H]1CC[C@H](Nc2nc(-c3nccn3C)nn3cc(-c4ccn(C)n4)c(C(=O)NCC(F)(F)F)c23)C1 (racemic) [Compound 181, 4-(((1S,3S)-3-Methoxycyclopentyl)amino)-2-(1-methyl-1H-imidazol-2-yl)-6-(1-methyl-1H-pyrazol-3-yl)-N-(2,2,2-trifluoroethyl)pyrrolo[2,1-f][1,2,4]triazine-5-carboxamide] | B* (26-49% activation) | 50 to 74 | A (1-25% inhibition) |
| CO[C@H]1CC[C@H](Nc2nc(-c3nccn3C)nn3cc(-c4ccn(C)n4)c(C(=O)NC4CC4)c23)C1 (racemic) [Compound 182, rac N-Cyclopropyl-4-(((1S,3S)-3-methoxycyclo-pentyl)amino)-2-(1-methyl-1H-imidazol-2-yl)-6-(1-methyl-1H-pyrazol-3-yl)pyrrolo[2,1-f][1,2,4]triazine-5-carboxamide] | B* (26-49% activation) | 25 to 49 | A* (1-25% activation) |
| COCCNC(=O)c1c(-c2ccn(C)n2)cn2nc(-c3nccn3C)nc(N[C@H]3CC[C@H](OC)C3)c12 (racemic) [Compound 183, rac 4-(((1S,3S)-3-Methoxycyclo-pentyl)amino)-N-(2-methoxyethyl)-2-(1-methyl-1H-imidazol-2-yl)-6-(1-methyl-1H-pyrazol-3-yl)pyrrolo[2,1-f][1,2,4]triazine-5-carboxamide] | A (1-25% inhibition) | 25 to 49 | D* (85-100% activation) |
| COCCCNC(=O)c1c(-c2ccn(C)n2)cn2nc(-c3nccn3C)nc(N[C@H]3CC[C@H](OC)C3)c12 (racemic) [Compound 184, rac 4-(((1S,3S)-3-methoxycyclo-pentyl)amino)-N-(3-methoxypropyl)-2-(1-methyl-1H-imidazol-2-yl)-6-(1-methyl-1H-pyrazol-3-yl)pyrrolo[2,1-f][1,2,4]triazine-5-carboxamide] | A* (1-25% activation) | 25 to 49 | A* (1-25% activation) |
| CO[C@H]1CC[C@H](Nc2nc(-c3nccn3C)nn3cc(-c4ccn(C)n4)c(C(=O)NCCN4CCOCC4)c23)C1 (racemic) [Compound 185, rac 4-(((1S,3S)-3-methoxycyclo-pentyl)amino)-2-(1-methyl-1H-imidazol-2-yl)-6-(1-methyl-1H-pyrazol-3-yl)-N-(2-morpholino-ethyl)pyrrolo[2,1-f][1,2,4]triazine-5-carboxamide] | A (1-25% inhibition) | 25 to 49 | B (26-49% inhibition) |
| CO[C@@H]1C[C@H]1Nc1nc(-c2nccn2C)nn2cc(-c3cccnc3)c(-c3ccccc3)c12 (racemic) [Compound 190, N-((1R,2R)-2-Methoxycyclopropyl)-2-(1-methyl-1H-imidazol-2-yl)-5-phenyl-6-(pyridin-3-yl)pyrrolo[2,1-f][1,2,4]triazin-4-amine] | D* (85-100% activation) | 50 to 74 | D* (85-100% activation) |
| CO[C@H]1CC[C@@H](Nc2nc(-c3nccn3C)nn3cc(-c4cccnc4)c(-c4ccccc4)c23)C1 (racemic) [Compound 193, rac N-((1R,3S)-3-Methoxycyclopentyl)-2-(1-methyl-1H-imidazol-2-yl)-5-phenyl-6-(pyridin-3-yl)pyrrolo[2,1-f][1,2,4]triazin-4-amine] | D* (85-100% activation) | 75 to 100 | D* (85-100% activation) |
| CO[C@H]1CC[C@H](Nc2nc(-c3nccn3C)nn3cc(-c4cccnc4)c(-c4ccccc4)c23)C1 (racemic) [Compound 194, rac N-((1S,3S)-3-Methoxycyclopentyl)-2-(1-methyl-1H-imidazol-2-yl)-5-phenyl-6-(pyridin-3-yl)pyrrolo[2,1-f][1,2,4]triazin-4-amine] | D* (85-100% activation) | 75 to 100 | D* (85-100% activation) |
| CO[C@@H]1C[C@H]1Nc1nc(-c2nccn2C)nn2cc(-c3ccncc3)c(-c3ccccc3)c12 (racemic) [Compound 197, rac N-((1R,2R)-2-methoxycyclopropyl)-2-(1-methyl-1H-imidazol-2-yl)-5-phenyl-6-(pyridin-4-yl)pyrrolo[2,1-f][1,2,4]triazin-4-amine] | A* (1-25% activation) | 50 to 74 | D* (85-100% activation) |
| CO[C@H]1CC[C@@H](Nc2nc(-c3nccn3C)nn3cc(-c4ccncc4)c(-c4ccccc4)c23)C1 (racemic) [Compound 200, rac N-((1R,3S)-3-Methoxycyclopentyl)-2-(1-methyl-1H-imidazol-2-yl)-5-phenyl-6-(pyridin-4-yl)pyrrolo[2,1-f][1,2,4]triazin-4-amine] | B (26-49% inhibition) | 1 to 24 | D* (85-100% activation) |
| CO[C@H]1CC[C@H](Nc2nc(-c3nccn3C)nn3cc(-c4ccncc4)c(-c4ccccc4)c23)C1 (racemic) [Compound 201, rac N-((1S,3S)-3-Methoxycyclopentyl)-2-(1-methyl-1H-imidazol-2-yl)-5-phenyl-6-(pyridin-4-yl)pyrrolo[2,1-f][1,2,4]triazin-4-amine] | B (26-49% inhibition) | 75 to 100 | D* (85-100% activation) |
| COc1cc(Nc2nc(-c3ccccn3)nn3cc(-c4ccn(C(C)C)n4)c(C)c23)ncn1 [Compound 13, 6-(1-Isopropyl-1H-pyrazol-3-yl)-N-(6-methoxypyrimidin-4-yl)-5-methyl-2-(pyridin-2-yl)pyrrolo[2,1-f][1,2,4]triazin-4-amine] | 0 (0% inhibition) | 75 to 100 | 0 (0% inhibition) |
| COc1cccc(Nc2nc(-c3ccccn3)nn3cc(-c4ccn(C(C)C)n4)c(C)c23)n1 [Compound 14, 6-(1-Isopropyl-1H-pyrazol-3-yl)-N-(6-methoxypyridin-2-yl)-5-methyl-2-(pyridin-2-yl)pyrrolo[2,1-f][1,2,4]triazin-4-amine] | 0 (0% inhibition) | 50 to 74 | 0 (0% inhibition) |
| COc1cccc(-c2cn3nc(-c4nccn4C)nc(O)c3c2C)c1Cl [Compound 15, 6-(2-Chloro-3-methoxyphenyl)-5-methyl-2-(1-methyl-1H-imidazol-2-yl)pyrrolo[2,1-f][1,2,4]triazin-4-ol] | 0 (0% inhibition) | 50 to 74 | 0 (0% inhibition) |
| COCCNc1nc(-c2nccn2C)nn2cc(-c3cccc(OC)c3Cl)c(C)c12 [Compound 16, 6-(2-Chloro-3-methoxyphenyl)-N-(2-methoxyethyl)-5-methyl-2-(1-methyl-1H-imidazol-2-yl)pyrrolo[2,1-f][1,2,4]triazin-4-amine] | 0 (0% inhibition) | 50 to 74 | A (1-25% inhibition) |
| COc1cc(Nc2nc(-c3nccn3C)nn3cc(-c4cccnc4)c(-c4cccnc4)c23)ncn1 [Compound 170, N-(6-Methoxypyrimidin-4-yl)-2-(1-methyl-1H-imidazol-2-yl)-5,6-di(pyridin-3-yl)pyrrolo[2,1-f][1,2,4]triazin-4-amine] | C* (46-84% activation) | 50 to 74 | A* (1-25% activation) |
| CO[C@H]1C[C@H](Nc2nc(-c3nccn3C)nn3cc(-c4cccc(OCCN)c4)c(-c4ccccc4)c23)C1 [Compound 205, 6-(3-(2-Aminoethoxy)phenyl)-N-((1r,3r)-3-methoxycyclobutyl)-2-(1-methyl-1H-imidazol-2-yl)-5-phenylpyrrolo[2,1-f][1,2,4]triazin-4-amine] | C* (46-84% activation) | – | D* (85-100% activation) |
